According to patent US20190008810A1, “METHOD FOR PREVENTION, TREATMENT AND ALLEVIATION OF INFECTIOUS DISEASES AND DISORDERS” (REPLICON HEALTH OY, priority 2016, published 2019):

Key:
[1] = tested on: seasonal flu or similar infectious disease; assay type: in vivo, human; conditions: S1, 2 or 3 times 1×500 mg during work days, before DGA
[2] = tested on: acute bowels inflammation caused by diverticulitis; assay: Healing from acute inflammatory bowels disease (diverticulitis) in S4, Example 1e; assay type: in vivo, human; conditions: S4, 1000 mg 1-2 times a day, before DGA
From the text: In Example 1e the resolution of gastrointestinal tract infection in another subject 4 (S4) has been shown. Like in S1 also in S4 the HO-1 pathway is clearly activated by the DGA Activation. This is indirectly shown by the clear reduction of blood bilirubin in Table 1e. […] During last few years these seldom but acute inflammations in the gastrointestinal tract have been mostly in the colon and caused by inflammation in Colonic diverticula. […] The only functioning therapy for inflammatory bowels disease has been the administration of strong intravenous antibiotics.
Like other tests with unhealthy humans also this test was done because there were no other efficient substances available. When symptoms of increased bowels inflammation/diverticulosis started S4 was on holiday abroad with very difficult access to any specialized doctor not to mention any hospital. […] Simultaneously with inflammatory symptoms and maybe partially enhancing them S4 experienced constipation.
By Saturday night on the 4th day of gradually increasing acute inflammation in the colon, S4 decided to test whether DGA Activation in combination with paracetamol would assist in resolving this already rather serious inflammation. There were no other available options at that moment. This decision was also supported by confidential information received on positive results with S1 (Examples 1b and 1c).
Saturday night at 0737 pm first 260 mg of D-glyceric acid calcium salt mixed into water was taken with 2×500 mg of paracetamol. Another additional 260 mg dose of DGAcs mixed into water was taken the same night at 1020 pm. Altogether the starting dose was 9 mg/kg i.e. relatively high. High initial dose was chosen because of high level of inflammation.

CC(=O)Nc1ccc(O)cc1 [paracetamol, reference compound]
effect on general symptoms and fever [1]: temporary relief but no cure | effect on pains and symptoms [2]: helped to relief pains for 2-3 days but the symptoms got worse
